# Assay results taken from patent US20250352550A1, “SUBSTITUTED FUROPYRIDINES FOR THERAPEUTIC USE” (MASARYKOVA UNIVERZITA, priority 2022, published 2025).
# Experiments:
# [1] = molecular target: T1, DDR1 (Homo sapiens, UniProt Q08345); assay: HotSpot radiometric kinase assay (Reaction Biology), DDR1; assay type: biochemical; details: 200 nM kinase, substrate IRS1tide 20 μM, 33P-ATP, 120 minutes at room temperature
# T1 construct: purchased Reaction Biology
# Experimental: (§1) The compounds were profiled in the HotSpot radiometric assays (Reaction Biology).
# Briefly, • 1. Substrate indicated in Table 1 was dissolved in freshly prepared reaction buffer (20 mM HEPES (pH 7.5), 10 mM MgCl2, 1 mM EGTA, 0.01% Brij35, 0.02 mg/ml BSA, 0.1 mM Na3VO4, 2 mM DTT, 1% DMSO) at the concentration indicated in Table 1. • 2. Corresponding kinase (concentration indicated in Table 1) was added and the mixture was gently mixed. • 3. Tested compound dissolved in DMSO was added into the kinase reaction mixture. • 4. ^33P-ATP (specific activity 0.01 μCi/μL final) was added into the reaction mixture to initiate the reaction. • 5. The kinase reaction was incubated for 120 minutes at room temperature. • 6. […] The radioactive phosphorylated substrate remaining on the filter paper was measured.
# (§2) Kinase activity data were expressed as the percent remaining kinase activity in tested samples compared to the vehicle (DMSO) reactions. IC50 values and curve fits were obtained using Prism4 Software (GraphPad).
# [2] = molecular target: T2, FLT3 (Homo sapiens, UniProt P36888); assay: HotSpot radiometric kinase assay (Reaction Biology), FLT3; assay type: biochemical; details: 4 nM kinase, substrate ABLtide 20 μM, 33P-ATP, 120 minutes at room temperature
# T2 construct: purchased Reaction Biology
# T2 sequence (P36888 27-993): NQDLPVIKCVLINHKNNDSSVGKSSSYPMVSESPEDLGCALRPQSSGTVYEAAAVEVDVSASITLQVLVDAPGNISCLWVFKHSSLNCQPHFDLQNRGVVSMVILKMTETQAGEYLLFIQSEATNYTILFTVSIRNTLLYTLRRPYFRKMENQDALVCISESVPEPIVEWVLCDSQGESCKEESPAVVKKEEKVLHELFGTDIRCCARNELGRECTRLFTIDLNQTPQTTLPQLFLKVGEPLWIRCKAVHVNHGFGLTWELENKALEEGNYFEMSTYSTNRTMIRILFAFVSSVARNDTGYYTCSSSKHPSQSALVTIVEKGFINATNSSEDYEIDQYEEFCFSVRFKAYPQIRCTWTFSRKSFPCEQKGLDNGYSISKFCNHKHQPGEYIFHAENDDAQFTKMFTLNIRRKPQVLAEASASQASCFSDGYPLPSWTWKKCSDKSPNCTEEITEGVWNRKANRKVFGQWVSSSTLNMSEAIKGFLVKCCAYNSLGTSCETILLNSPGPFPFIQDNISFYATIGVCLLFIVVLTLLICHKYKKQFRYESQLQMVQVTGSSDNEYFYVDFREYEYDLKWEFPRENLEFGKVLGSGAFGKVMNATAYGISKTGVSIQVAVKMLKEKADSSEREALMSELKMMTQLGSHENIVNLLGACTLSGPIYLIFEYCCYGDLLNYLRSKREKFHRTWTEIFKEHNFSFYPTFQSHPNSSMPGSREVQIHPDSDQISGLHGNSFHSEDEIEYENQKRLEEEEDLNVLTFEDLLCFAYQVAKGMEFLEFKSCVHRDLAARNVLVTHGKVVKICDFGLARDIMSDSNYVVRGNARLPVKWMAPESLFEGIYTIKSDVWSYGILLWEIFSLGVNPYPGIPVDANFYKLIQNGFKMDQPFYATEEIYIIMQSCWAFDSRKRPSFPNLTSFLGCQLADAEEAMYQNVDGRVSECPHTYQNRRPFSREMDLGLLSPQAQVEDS
# Experimental: as §1
# Briefly, • 1. Substrate indicated in Table 1 was dissolved in freshly prepared reaction buffer (20 mM HEPES (pH 7.5), 10 mM MgCl2, 1 mM EGTA, 0.01% Brij35, 0.02 mg/ml BSA, 0.1 mM Na3VO4, 2 mM DTT, 1% DMSO) at the concentration indicated in Table 1. • 2. Corresponding kinase (concentration indicated in Table 1) was added and the mixture was gently mixed. • 3. Tested compound dissolved in DMSO was added into the kinase reaction mixture. • 4. ^33P-ATP (specific activity 0.01 μCi/μL final) was added into the reaction mixture to initiate the reaction. • 5. The kinase reaction was incubated for 120 minutes at room temperature. • 6. Reaction mixture was spotted onto P81 ion exchange paper (Whatman K 3698-915). • 7. The filters were extensively washed with […]. • 7. The radioactive phosphorylated substrate remaining on the filter paper was measured.
# as §2
# Table 2 summarizes the inhibitory activities of indicated compounds tested in the in vitro kinase assays described above.
# T1 sequence (Q08345 19-913): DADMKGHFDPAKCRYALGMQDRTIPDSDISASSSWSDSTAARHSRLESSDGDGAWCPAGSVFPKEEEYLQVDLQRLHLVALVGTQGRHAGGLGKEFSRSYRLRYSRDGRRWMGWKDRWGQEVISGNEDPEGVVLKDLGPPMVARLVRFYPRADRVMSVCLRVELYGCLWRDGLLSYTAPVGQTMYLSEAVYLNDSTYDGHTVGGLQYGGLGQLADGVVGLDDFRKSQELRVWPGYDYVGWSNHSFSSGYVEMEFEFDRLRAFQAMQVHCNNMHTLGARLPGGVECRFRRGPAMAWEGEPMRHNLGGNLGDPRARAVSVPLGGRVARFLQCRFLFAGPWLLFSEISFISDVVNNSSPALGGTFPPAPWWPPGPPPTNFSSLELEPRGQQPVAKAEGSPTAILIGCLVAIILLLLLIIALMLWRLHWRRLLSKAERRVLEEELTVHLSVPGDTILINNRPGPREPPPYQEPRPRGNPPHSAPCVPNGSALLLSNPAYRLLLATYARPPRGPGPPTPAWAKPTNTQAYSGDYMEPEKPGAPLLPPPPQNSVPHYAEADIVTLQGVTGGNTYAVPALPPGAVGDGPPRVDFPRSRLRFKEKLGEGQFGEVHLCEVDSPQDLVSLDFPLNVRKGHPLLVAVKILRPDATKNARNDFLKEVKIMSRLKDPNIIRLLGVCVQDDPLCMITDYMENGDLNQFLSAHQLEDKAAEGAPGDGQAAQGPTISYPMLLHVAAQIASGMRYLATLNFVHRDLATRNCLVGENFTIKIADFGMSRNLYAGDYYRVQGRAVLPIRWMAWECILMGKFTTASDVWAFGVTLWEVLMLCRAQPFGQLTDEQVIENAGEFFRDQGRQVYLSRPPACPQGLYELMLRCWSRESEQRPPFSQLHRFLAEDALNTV
Compound,IC50 [1] [µM],IC50 [2] [µM]
"CN1CCN(c2ccc(Nc3cnc4c(-c5ccccc5)coc4c3)cc2)CC1 [Preparative Example 101, N-(4-(4-methylpiperazin-1-yl)phenyl)-3-phenylfuro[3,2-b]pyridin-6-amine]",0.347,0.146
"Cc1ccc(-c2coc3cc(-c4ccc(N5CCNCC5)cc4)cnc23)cc1 [Preparative Example 43, 6-(4-(piperazin-1-yl)phenyl)-3-(p-tolyl)furo[3,2-b]pyridine]",0.126,0.175
"Cn1ccc(-c2coc3cc(-c4ccc(N5CCNCC5)cc4)cnc23)n1 [Preparative Example 37, 3-(1-methyl-1H-pyrazol-3-yl)-6-(4-(piperazin-1-yl)phenyl)furo[3,2-b]pyridine]",0.222,0.282
"c1cncc(-c2coc3cc(-c4ccc(N5CCNCC5)cc4)cnc23)c1 [Preparative Example 11, 6-(4-(piperazin-1-yl)phenyl)-3-(pyridin-3-yl)furo[3,2-b]pyridine]",0.294,0.025
"CC(C)(C)Sc1cccc(-c2coc3cc(-c4ccc(N5CCNCC5)cc4)cnc23)c1 [Preparative Example 46, 3-(3-(tert-butylthio)phenyl)-6-(4-(piperazin-1-yl)phenyl)furo[3,2-b]pyridine]",0.586,0.578
"COCc1cccc(-c2coc3cc(-c4ccc(N5CCNCC5)cc4)cnc23)c1 [Preparative Example 70, 3-(3-(methoxymethyl)phenyl)-6-(4-(piperazin-1-yl)phenyl)furo[3,2-b]pyridine]",0.196,0.054
"c1ccc(Oc2cccc(-c3coc4cc(-c5ccc(N6CCNCC6)cc5)cnc34)c2)cc1 [Preparative Example 104, 3-(3-phenoxyphenyl)-6-(4-(piperazin-1-yl)phenyl)furo[3,2-b]pyridine]",0.252,0.121

# Continued, values first:
IC50 [1] [µM],IC50 [2] [µM],Compound
0.157,0.022,"CN1CCN(c2ccc(-c3cnc4c(-c5cccc(CC(N)=O)c5)coc4c3)cc2)CC1 [Preparative Example 154, 2-(3-(6-(4-(4-methylpiperazin-1-yl)phenyl)furo[3,2-b]pyridin-3-yl)phenyl)acetamide]"
0.206,0.078,"CC(=O)NCc1cccc(-c2coc3cc(-c4ccc(N5CCN(C)CC5)cc4)cnc23)c1 [Preparative Example 137, N-(3-(6-(4-(4-methylpiperazin-1-yl)phenyl)furo[3,2-b]pyridin-3-yl)benzyl)acetamide]"
0.869,0.649,"FC(F)(F)Oc1cccc(-c2coc3cc(-c4ccc(N5CCNCC5)cc4)cnc23)c1 [Preparative Example 113, 6-(4-(piperazin-1-yl)phenyl)-3-(3-(trifluoromethoxy)phenyl)furo[3,2-b]pyridine]"
0.423,0.35,"CN1CCN(c2ccc(-c3cnc4c(-c5cccc(CNC(=O)OC(C)(C)C)c5)coc4c3)cc2)CC1 [Preparative Example 135, tert-butyl (3-(6-(4-(4-methylpiperazin-1-yl)phenyl)furo[3,2-b]pyridin-3-yl)benzyl)carbamate]"
0.673,0.353,"FC(F)(F)COc1cccc(-c2coc3cc(-c4ccc(N5CCNCC5)cc4)cnc23)c1 [Preparative Example 116, 6-(4-(piperazin-1-yl)phenyl)-3-(3-(2,2,2-trifluoroethoxy)phenyl)furo[3,2-b]pyridine]"
0.472,0.269,"CN1CCN(c2ccc(-c3cnc4c(-c5cccc(C(=O)c6ccccc6)c5)coc4c3)cc2)CC1 [Preparative Example 133, (3-(6-(4-(4-methylpiperazin-1-yl)phenyl)furo[3,2-b]pyridin-3-yl)phenyl)(phenyl)methanone]"
0.079,0.362,"CCCc1oc2cc(-c3ccc(N4CCN(C)CC4)cc3)cnc2c1-c1ccccc1 [Preparative Example 200, 1-methyl-4-(4-{3-phenyl-2-propylfuro[3,2-b]pyridin-6-yl}phenyl)piperazine]"
